Data as given in US20110311445A1, “DIAGNOSIS AND TREATMENT OF MYELOID AND LYMPHOID CELL CANCERS” (MORPHOTEK, INC., priority 2003, published 2011).

Legend:
[1] = tested on: myeloid and lymphoid cancer cells; experiment: Binding of chlorotoxin and binding-domain peptides to lymphoid cancer cells (FACS, streptavidin-fluorescein); conditions: general statement; FACS on Raji, Daudi, Molt-4 cells (FIG. 1, 2)
Protocol: Raji (Epstein et al. (1966) J. Natl. Cancer Inst. 37, 547-559) and Daudi (Klein et al. (1968) Cancer Res. 28 1300-1310) cells were used either unfixed or fixed with one percent glutaraldehyde. The Raji cell line (ATCC CCL-86) is a B lymphocyte cell line derived from a Burkitt's lymphoma of a person. The Daudi cell line (ATCC CCL-213) is a B lymphoblast cell line derived from person. Cells were incubated with chlorotoxin or the designated binding domain peptide (SEQ ID NO: 8 or 10), washed then incubated with streptavidin-fluorescein (strp-FL). After another wash, cells were analyzed using a FACS analyzer and the percent of positive staining cells determined (FIG. 1). Controls included untreated cells, cells incubated with streptavidin-fluorescein alone and cells incubated with negative peptide.
Molt-4 cells (Minowada et al. (1972) J. Natl. Cancer Inst. 49, 891-895) were used either unfixed or fixed with one percent glutaraldehyde. The Molt-4 cell line is a T lymphoblast cell line derived from a patient in relapse. Cells were incubated with chlorotoxin or the designated binding domain peptide (SEQ ID NO: 8 or 10), washed then incubated with streptavidin-fluorescein (strp-FL). After another wash, cells were analyzed using a FACS analyzer and the percent of positive staining cells determined (FIG. 2). […]

[2] = tested on: Daudi cell line; experiment: Cell proliferation / cytotoxicity, CCK-8, chlorotoxin (TM-601) with or without doxorubicin; type: cell-based; conditions: in combination with doxorubicin; FIG. 4
Protocol: (§1) A tissue culture method was optimized to test the effects of chlorotoxin (TM-601) in the presence or absence of doxorubicin on Raji (FIG. 3) and Daudi (FIG. 4) cell lines. Cells were plated on 96-well microtiter tissue culture plates at a density of approximately 1000-2000 cells per well, depending on the specific cell line. Cells were allowed to adhere twenty-four hours in a 37° C., humidified cell culture incubator supplied with five percent carbon dioxide. In order to achieve a dose-response curve for each drug in each cell line, cells were treated with decreasing concentrations doxorubicin for two to five days. Following treatment, the cytotoxic effect of doxorubicin was quantified using the Cell Counting Kit-8 (CCK-8) (Dojindo Inc.) according to the manufacturer's instructions. In brief, following the treatment period with doxorubicin, cells were incubated with CCK-8 reagent and incubated at 37° C. for one to four hours, depending on the specific cell type. After incubation, plates were read on a microplate reader at a wavelength of 490 nm.

[3] = tested on: Raji cell line; experiment: as above; type: cell-based; conditions: in combination with doxorubicin; FIG. 3
Protocol: as §1

With chlorotoxin the “binding to myeloid and lymphoid cancer cells” value [1] was “specifically and selectively bind”, the “effect on Daudi cell proliferation” value [2] was “close-dependent synergistic effects” and the “effect on Raji cell proliferation” value [3] was “close-dependent synergistic effects”.
